Test results from patent US9910044B2, “Methods for identifying arthropod repellents based on modulation of specific ionotropic receptors, and compounds and compositions identified by such methods” (The Regents of the University of California, priority 2013, dated 2018).
Like-named read-outs stand apart in the source and are kept apart here.

Tests used:
[1] = system: mammalian cation channels; details: cited from earlier work
Drosophila [2] = format: in vivo, Drosophila melanogaster
Drosophila [3] = test: Drosophila olfactory avoidance assay, 2-choice trap; format: in vivo, Drosophila melanogaster
Procedure: For each trial, three- to six-day old flies (10 males and 10 females) were starved for 18 hours. Flies were transferred to a cylindrical 38.1 mm D×84.1 mm H chamber containing two traps each fashioned from an upturned 1.5 ml microcentrifuge tube with 2 mm removed from the tapered end. A pipette tip (1000 μl), was cut 2.5 cm from narrow end and 0.5 cm from top and inserted into the bottom of the inverted microcentrifuge tube. A 15 mm×16 mm #1 Whatmann filter paper was inserted in between the pipette tip and tip of microcentrifuge tube in a manner that entering flies cannot make physical contact with it. With reference to FIG. 2A, for the 1-choice test, a 50 μl sample of test odorant (50% DEET in DMSO) was applied to filter paper and 125 μl of 10% apple cider vinegar (ACV) is applied to the upturned lid of the microcentrifuge tube as attractant. With reference again to FIG. 2A, for the 2-choice test, two 10% ACV lured traps were placed in the cylinder, one with DMSO as the solvent (right) and another with DEET (left).

[4] = target: human acetylcholinesterase (Homo sapiens, UniProt P22303); details: Corbel et al., BMC Biol, 7, 2009; cited from earlier work
Chain of human acetylcholinesterase (P22303 32-614): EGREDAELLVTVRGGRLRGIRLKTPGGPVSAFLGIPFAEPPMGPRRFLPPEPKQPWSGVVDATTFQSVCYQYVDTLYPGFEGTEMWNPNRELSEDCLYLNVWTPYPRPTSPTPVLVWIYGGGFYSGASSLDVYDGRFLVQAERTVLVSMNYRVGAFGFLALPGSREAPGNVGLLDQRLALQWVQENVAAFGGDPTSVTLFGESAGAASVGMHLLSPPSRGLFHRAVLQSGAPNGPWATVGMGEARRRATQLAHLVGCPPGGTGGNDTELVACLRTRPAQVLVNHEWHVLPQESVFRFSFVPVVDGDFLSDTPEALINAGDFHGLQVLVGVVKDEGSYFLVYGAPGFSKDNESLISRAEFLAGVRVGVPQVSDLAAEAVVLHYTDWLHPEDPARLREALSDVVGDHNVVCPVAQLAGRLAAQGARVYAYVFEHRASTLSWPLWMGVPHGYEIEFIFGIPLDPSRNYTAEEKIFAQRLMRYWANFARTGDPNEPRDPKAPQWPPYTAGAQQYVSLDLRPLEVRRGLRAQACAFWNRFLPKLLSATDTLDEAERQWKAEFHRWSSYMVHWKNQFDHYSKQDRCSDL

In the case of `CCN(CC)C(=O)c1cccc(C)c1` [DEET, N,N-Diethyl-m-toluamide], the “inhibition of mammalian cation channels” value [1] is listed as “inhibit”, the “avoidance of DEET-treated trap” value (Drosophila [2]; Ir25a neuron-TNTG flies (Ir25a-Ga14/UAS-TNTG), 10% ACV lure) is listed as “substantially decreased” and the “avoidance of DEET-treated trap” value (Drosophila [2]; Ir40a neuron-TNTG flies (Ir40a-Ga14/UAS-TNTG), versus controls, 10% ACV lure) is listed as “substantially decreased”. For the same compound, the “avoidance of DEET-treated trap” value (Drosophila [2]; control flies Ir25a-Ga14/UAS-IMPTV, 10% ACV lure) was “observed to avoid DEET”, the “avoidance of DEET-treated trap” value (Drosophila [2]; control flies Ir40a-G4/+ and UAS-TNTG/+, 10% ACV lure) was “observed to avoid DEET” and the “avoidance of DEET-treated trap” value (Drosophila [2]; in vivo) was “observed to avoid DEET”. The “olfactory avoidance to DEET” value (Drosophila [2]; in vivo) was “nearly abolished”, the “avoidance response to volatile DEET” value (Drosophila [3]; Ir40a neuron-silenced flies (Ir40a-promoter-Ga14, UAS-kir), 10% ACV lure) was “avoidance was observed to be lost” and the DEET avoidance (Drosophila [3]; Ir40a-RNAi flies (Ir40a-G4 with UAS-Ir40a-RNAi) compared to control flies, 10% ACV lure) was “loss of DEET avoidance”. The “olfactory DEET avoidance” value (Drosophila [3]; Ir93a-/- and Ir25a receptor mutant flies, FIG. 6B) was “found to be involved in olfactory DEET avoidance”, the “olfactory avoidance to DEET” value (Drosophila [3]; two DGRP lines with mutations in Ir40a (RAL-158, RAL-272), DEET 50% in DMSO, 10% ACV lure) was “nearly abolished” and the “avoidance response to volatile DEET” value (Drosophila [3]; two control lines of the Ir40a-promoter-Ga14/UAS-kir experiment, 10% ACV lure) was “robust and reproducible avoidance response”. For the same compound, the “avoidance response to volatile DEET” value (Drosophila [3]; wild-type Canton-S, DEET 50% in DMSO, 10% ACV lure) was “robust and reproducible avoidance response” and the “inhibition of human acetylcholinesterase” value [4] was “inhibit”.
